Activity calls are given as the source filed them. The calls are words filed in the database; no cut-off is given here.
Assays:
EMT6 [1] = experiment: Antitumor activity against mouse EMT6 cells implanted in BALB/c mouse syngenic model assessed as increase in infiltration of CD8 positive T cells into tumors at 20 to 40 mg/kg, po qd measured after 18 days by immunohistochemical analysis; type: functional, organism-based; conditions: dose 20-40 mg/kg, time 18.0 day
[2] = Cmax in ICR mouse at 10 mg/kg, po measured upto 24 hrs by LC-MS/MS analysis; type: ADME, organism-based; set-up: time < 24 hrs, dose 10 mg/kg, route po; conditions: in vivo
EMT6 [3] = experiment: Antitumor activity against mouse EMT6 cells implanted in BALB/c mouse syngenic model assessed as tumor growth inhibition at 20 mg/kg, po bid and measured after 18 days relative to control; type: functional; conditions: EMT6, 432 h, time 18 day, read-out: TGI
[4] = Terminal half life in ICR mouse at 1 mg/kg, iv measured upto 24 hrs by LC-MS/MS analysis; type: ADME, organism-based; conditions: in vivo, read-out: beta t1/2 (converted)
[5] = Cmax in ICR mouse at 1 mg/kg, iv measured upto 24 hrs by LC-MS/MS analysis; type: ADME, organism-based; set-up: time < 24 hrs, dose 1 mg/kg, route iv; conditions: in vivo
EMT6 [6] = experiment: Antitumor activity against mouse EMT6 cells implanted in BALB/c mouse syngenic model assessed as downregulation of pERK level in tumor at 20 to 40 mg/kg, po qd measured after 18 days by immunohistochemical analysis; type: functional, organism-based; conditions: dose 20-40 mg/kg, time 18.0 day
EMT6 [7] = experiment: Antitumor activity against mouse EMT6 cells implanted in BALB/c mouse syngenic model assessed as downregulation of Ki67 level in tumor at 20 mg/kg, po bid measured after 18 days by immunohistochemical analysis; type: functional, organism-based; conditions: time 18.0 day
CDK12/Cyclin K = CDK12/Cyclin K (Homo sapiens, UniProt Q9NYV4); experiment: Inhibition of recombinant N-terminal GST/His6-fusion tagged human CDK12/Cyclin K expressed in Sf9 insect cells incubated for 20 mins followed by [33P]gamma-ATP addition and measured after 2 hrs by radiometric HotSpot Kinase assay
Chain of CDK12/Cyclin K (O75909 whole entry, the tested form may be a part): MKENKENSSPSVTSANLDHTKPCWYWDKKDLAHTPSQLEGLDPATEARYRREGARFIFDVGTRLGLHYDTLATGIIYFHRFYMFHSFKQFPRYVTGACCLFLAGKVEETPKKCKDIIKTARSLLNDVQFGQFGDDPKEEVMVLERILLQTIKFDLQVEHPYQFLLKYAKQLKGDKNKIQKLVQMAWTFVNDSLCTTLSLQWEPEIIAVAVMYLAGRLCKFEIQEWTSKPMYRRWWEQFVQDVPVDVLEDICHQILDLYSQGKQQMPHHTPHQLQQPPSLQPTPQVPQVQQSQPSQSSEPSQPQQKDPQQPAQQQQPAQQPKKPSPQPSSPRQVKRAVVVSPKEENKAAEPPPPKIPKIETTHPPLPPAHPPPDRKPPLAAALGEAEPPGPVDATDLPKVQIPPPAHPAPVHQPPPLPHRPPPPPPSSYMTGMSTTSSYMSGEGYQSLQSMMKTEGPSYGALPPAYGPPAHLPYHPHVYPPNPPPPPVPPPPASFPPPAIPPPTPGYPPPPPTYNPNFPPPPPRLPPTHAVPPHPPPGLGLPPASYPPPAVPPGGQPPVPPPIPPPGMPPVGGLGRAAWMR
Chain of CDK12/Cyclin K (Q9NYV4 whole entry, the tested form may be a part): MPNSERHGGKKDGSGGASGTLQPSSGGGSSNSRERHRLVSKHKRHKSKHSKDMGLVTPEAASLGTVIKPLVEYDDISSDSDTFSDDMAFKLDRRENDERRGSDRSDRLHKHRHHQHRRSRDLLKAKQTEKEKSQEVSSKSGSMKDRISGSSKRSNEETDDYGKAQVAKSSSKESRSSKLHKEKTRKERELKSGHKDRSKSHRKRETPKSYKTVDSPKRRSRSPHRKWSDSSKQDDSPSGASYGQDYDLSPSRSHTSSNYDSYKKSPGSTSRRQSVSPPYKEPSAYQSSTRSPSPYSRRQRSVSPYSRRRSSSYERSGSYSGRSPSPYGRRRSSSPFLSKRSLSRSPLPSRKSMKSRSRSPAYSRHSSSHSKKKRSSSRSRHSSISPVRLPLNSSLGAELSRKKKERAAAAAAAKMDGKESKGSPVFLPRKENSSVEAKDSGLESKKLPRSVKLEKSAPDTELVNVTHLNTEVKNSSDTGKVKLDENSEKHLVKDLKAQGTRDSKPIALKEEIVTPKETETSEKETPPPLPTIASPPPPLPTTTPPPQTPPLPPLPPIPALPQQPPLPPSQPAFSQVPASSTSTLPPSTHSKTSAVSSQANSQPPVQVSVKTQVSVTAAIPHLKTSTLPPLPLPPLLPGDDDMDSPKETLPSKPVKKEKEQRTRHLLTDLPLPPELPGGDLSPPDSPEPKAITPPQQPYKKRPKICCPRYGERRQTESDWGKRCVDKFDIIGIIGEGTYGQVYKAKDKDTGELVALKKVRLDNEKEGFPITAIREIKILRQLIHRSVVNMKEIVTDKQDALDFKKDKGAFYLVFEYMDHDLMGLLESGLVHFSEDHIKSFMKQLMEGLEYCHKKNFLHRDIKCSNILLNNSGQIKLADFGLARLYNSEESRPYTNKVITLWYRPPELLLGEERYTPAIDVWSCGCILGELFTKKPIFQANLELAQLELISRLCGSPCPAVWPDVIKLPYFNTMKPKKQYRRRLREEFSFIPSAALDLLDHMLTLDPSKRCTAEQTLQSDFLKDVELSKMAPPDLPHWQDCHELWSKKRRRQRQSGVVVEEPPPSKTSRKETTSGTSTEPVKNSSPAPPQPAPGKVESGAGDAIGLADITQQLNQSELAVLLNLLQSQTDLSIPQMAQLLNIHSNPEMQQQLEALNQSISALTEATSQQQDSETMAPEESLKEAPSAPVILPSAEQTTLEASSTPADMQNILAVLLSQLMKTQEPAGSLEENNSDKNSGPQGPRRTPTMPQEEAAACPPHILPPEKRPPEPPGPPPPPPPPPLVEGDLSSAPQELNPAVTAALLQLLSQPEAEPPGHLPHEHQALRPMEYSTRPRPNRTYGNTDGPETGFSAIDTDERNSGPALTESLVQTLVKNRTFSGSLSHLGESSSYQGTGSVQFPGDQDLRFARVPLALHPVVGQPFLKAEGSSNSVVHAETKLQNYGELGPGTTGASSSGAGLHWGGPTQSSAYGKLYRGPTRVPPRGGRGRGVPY

[8] = AUC in ICR mouse at 1 mg/kg, iv measured upto 24 hrs by LC-MS/MS analysis; type: ADME, organism-based; set-up: time < 24 hrs, dose 1 mg/kg, route iv; conditions: in vivo
EMT6 [9] = experiment: Antitumor activity against mouse EMT6 cells implanted in BALB/c mouse syngenic model assessed as downregulation of Ki67 level in tumor at 20 to 40 mg/kg, po qd measured after 18 days by immunohistochemical analysis; type: functional, organism-based; conditions: dose 20-40 mg/kg, time 18.0 day
[10] = AUC in ICR mouse at 10 mg/kg, po measured upto 24 hrs by LC-MS/MS analysis; type: ADME, organism-based; set-up: time < 24 hrs, dose 10 mg/kg, route po; conditions: in vivo
MDA-MB-231 [11] = experiment: Induction of apoptosis in human MDA-MB-231 cells assessed as early apoptotic cells at 3 uM measured after 48 hrs by Annexin V-FITC/PI staining based flow cytometric analysis (reference value: 0.32%); type: functional
MDA-MB-231 [12] = experiment: Induction of apoptosis in human MDA-MB-231 cells assessed as late apoptotic cells at 1 uM measured after 48 hrs by Annexin V-FITC/PI staining based flow cytometric analysis (reference value: 1.06%); type: functional
CDK6/cyclin D3 = CDK6/cyclin D3 (Homo sapiens, UniProt Q00534); experiment: Inhibition of recombinant N-terminal GST/His6-fusion tagged human CDK6/Cyclin D3 expressed in Sf9 insect cells incubated for 20 mins followed by [33P]gamma-ATP addition and measured after 2 hrs by radiometric HotSpot Kinase assay
Chain of CDK6/cyclin D3 (P30281 whole entry, the tested form may be a part): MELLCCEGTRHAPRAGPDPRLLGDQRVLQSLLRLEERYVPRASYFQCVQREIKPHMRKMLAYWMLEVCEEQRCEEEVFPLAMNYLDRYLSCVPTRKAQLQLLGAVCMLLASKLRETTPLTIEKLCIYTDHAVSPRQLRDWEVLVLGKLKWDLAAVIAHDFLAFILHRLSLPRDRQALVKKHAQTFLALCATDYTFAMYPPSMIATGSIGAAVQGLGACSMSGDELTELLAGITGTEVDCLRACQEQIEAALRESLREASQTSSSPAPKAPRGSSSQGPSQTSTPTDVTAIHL
Chain of CDK6/cyclin D3 (Q00534 whole entry, the tested form may be a part): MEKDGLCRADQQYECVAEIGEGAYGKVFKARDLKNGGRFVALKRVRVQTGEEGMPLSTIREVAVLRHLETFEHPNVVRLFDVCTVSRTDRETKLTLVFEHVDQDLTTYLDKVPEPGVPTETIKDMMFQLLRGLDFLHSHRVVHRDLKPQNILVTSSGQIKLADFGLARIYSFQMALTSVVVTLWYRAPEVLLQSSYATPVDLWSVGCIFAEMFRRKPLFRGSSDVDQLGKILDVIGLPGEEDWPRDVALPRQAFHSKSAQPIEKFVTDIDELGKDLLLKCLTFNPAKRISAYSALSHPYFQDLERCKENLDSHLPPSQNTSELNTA

[13] = Terminal half life in ICR mouse at 10 mg/kg, po measured upto 24 hrs by LC-MS/MS analysis; type: ADME, organism-based; conditions: in vivo, read-out: beta t1/2 (converted)
CDK4/Cyclin D3 = CDK4/Cyclin D3 (Homo sapiens, UniProt P11802); experiment: Inhibition of recombinant N-terminal GST/His6-fusion tagged human CDK4/Cyclin D3 expressed in Sf9 insect cells using 5-FAM-IPTSPITTTYFFFKKK as substrate preincubated for 10 mins followed by substrate addition and incubated for 3 hrs in presence of ATP by caliper mobility shift analysis
Chain of CDK4/Cyclin D3 (P11802 whole entry, the tested form may be a part): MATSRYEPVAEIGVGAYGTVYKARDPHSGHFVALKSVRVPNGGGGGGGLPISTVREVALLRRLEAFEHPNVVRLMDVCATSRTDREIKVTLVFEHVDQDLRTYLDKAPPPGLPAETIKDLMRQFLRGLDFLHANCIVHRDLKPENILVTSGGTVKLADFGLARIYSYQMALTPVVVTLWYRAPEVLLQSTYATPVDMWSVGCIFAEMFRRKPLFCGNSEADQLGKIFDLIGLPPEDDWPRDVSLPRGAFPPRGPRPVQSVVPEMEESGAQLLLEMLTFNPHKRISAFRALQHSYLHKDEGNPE
Chain of CDK4/Cyclin D3 (P30281 whole entry, further chain, the tested form may be a part): as the sequence (P30281 whole entry, the tested form may be a part) above

[14] = target: Cyclin-dependent kinase 4 (Homo sapiens) (UniProt P11802); experiment: Inhibition of CDK4 downstream signalling in human MDA-MB-231 cells assessed as decrease in p-retinoblastoma protein level measured after 72 hrs by Western blot analysis; type: cell-based; conditions: dose 1.25-20 µM, DDE = dose-dependent effect
Chain of Cyclin-dependent kinase 4 (Homo sapiens) (P11802 whole entry): as the sequence (P11802 whole entry, the tested form may be a part) above

MDA-MB-231 [15] = experiment: Induction of apoptosis in human MDA-MB-231 cells assessed as early apoptotic cells at 1 uM measured after 48 hrs by Annexin V-FITC/PI staining based flow cytometric analysis (reference value: 0.32%); type: functional
[16] = Volume of distribution in ICR mouse at 1 mg/kg, iv measured upto 24 hrs by LC-MS/MS analysis; type: ADME, organism-based; conditions: in vivo
[17] = Inhibition of recombinant full length N-terminal GST/His6-fusion tagged human CDK9/Cyclin T1 expressed in Sf9 insect cells incubated for 20 mins followed by [33P]gamma-ATP addition and measured after 2 hrs by radiometric HotSpot Kinase assay
[18] = Toxicity in BALB/c nude mouse implanted with mouse EMT6 cells assessed as body weight loss at 40 mg/kg, po qd and measured every 2 days for 18 days; type: organism-based; conditions: in vivo, 432 h, time 18 day
EMT6 [19] = experiment: Antitumor activity against mouse EMT6 cells implanted in BALB/c mouse syngenic model assessed as downregulation of p-retinoblastoma level in tumor at 20 to 40 mg/kg, po qd measured after 18 days by immunohistochemical analysis; type: functional, organism-based; conditions: dose 20-40 mg/kg, time 18.0 day
[20] = target: Cyclin-dependent kinase 5/CDK5 activator 1 (Homo sapiens, UniProt Q00535); experiment: Inhibition of recombinant full length N-terminal GST/His6-fusion tagged human CDK5/P25 expressed in Sf9 insect cells incubated for 20 mins followed by [33P]gamma-ATP addition and measured after 2 hrs by radiometric HotSpot Kinase assay
Chain of Cyclin-dependent kinase 5/CDK5 activator 1 (Q00535 whole entry, the tested form may be a part): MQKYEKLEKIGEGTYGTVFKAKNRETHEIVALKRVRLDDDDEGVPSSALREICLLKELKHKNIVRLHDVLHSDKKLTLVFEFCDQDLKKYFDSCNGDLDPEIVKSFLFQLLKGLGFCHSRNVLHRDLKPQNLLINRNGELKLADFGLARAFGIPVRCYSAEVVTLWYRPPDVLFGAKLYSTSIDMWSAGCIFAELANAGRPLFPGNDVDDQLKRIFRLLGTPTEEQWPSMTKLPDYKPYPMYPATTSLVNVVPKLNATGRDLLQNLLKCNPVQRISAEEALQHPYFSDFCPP
Chain of Cyclin-dependent kinase 5/CDK5 activator 1 (Q15078 whole entry, further chain, the tested form may be a part): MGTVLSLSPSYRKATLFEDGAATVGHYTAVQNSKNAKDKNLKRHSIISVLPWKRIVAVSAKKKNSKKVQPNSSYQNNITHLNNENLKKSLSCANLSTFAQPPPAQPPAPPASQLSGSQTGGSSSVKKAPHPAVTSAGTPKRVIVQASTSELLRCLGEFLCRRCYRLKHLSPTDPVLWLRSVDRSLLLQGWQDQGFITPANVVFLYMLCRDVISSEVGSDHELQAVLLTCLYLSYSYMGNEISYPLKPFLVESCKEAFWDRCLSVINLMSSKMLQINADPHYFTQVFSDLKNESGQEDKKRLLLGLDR

[21] = target: Tyrosine-protein phosphatase non-receptor type 6 (Homo sapiens, UniProt P29350); experiment: Inhibition of SHP1 (unknown origin) using DiFMUP as substrate preincubated for 20 mins followed by substrate addition and measured for 2 hrs by fluorescence based analysis
Chain of Tyrosine-protein phosphatase non-receptor type 6 (P29350 whole entry): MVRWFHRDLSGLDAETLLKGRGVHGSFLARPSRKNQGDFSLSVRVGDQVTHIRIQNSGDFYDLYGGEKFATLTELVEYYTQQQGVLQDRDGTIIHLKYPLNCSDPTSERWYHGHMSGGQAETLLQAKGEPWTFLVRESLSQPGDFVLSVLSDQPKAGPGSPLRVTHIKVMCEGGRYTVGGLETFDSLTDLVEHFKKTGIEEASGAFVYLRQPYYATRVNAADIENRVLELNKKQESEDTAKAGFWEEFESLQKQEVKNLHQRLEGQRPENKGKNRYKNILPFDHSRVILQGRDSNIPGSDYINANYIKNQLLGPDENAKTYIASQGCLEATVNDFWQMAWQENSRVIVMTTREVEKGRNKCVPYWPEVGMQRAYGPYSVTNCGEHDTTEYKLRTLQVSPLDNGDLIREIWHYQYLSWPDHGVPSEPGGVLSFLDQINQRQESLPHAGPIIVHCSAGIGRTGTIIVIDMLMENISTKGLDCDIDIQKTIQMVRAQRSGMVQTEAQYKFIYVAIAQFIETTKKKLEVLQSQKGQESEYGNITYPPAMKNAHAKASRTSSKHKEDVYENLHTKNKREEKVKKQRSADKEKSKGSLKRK

MDA-MB-231 [22] = experiment: Induction of cell cycle arrest in human MDA-MB-231 cells assessed as accumulation of cells in S phase at 3 uM incubated for 48 hrs by RNase/propidium iodide staining based flow cytometry analysis (reference value: […]); type: functional
MDA-MB-231 [23] = experiment: Antiproliferative activity against human MDA-MB-231 cells assessed as inhibition of cell growth incubated for 48 hrs by MTT assay; type: functional, cell-based; conditions: Homo sapiens, MDA-MB-231, 48 h
[24] = Toxicity in BALB/c nude mouse implanted with mouse EMT6 cells assessed as mortality at 40 mg/kg, po qd and measured every 2 days for 18 days; type: organism-based; conditions: in vivo, 432 h, time 18 day
EMT6 [25] = experiment: Antitumor activity against mouse EMT6 cells implanted in BALB/c mouse syngenic model assessed as tumor growth inhibition at 40 mg/kg, po qd and measured after 18 days relative to control; type: functional; conditions: EMT6, 432 h, time 18 day, read-out: TGI
MDA-MB-231 [26] = experiment: Induction of apoptosis in human MDA-MB-231 cells assessed as viable cells at 1 uM measured after 48 hrs by Annexin V-FITC/PI staining based flow cytometric analysis (reference value: 98.04%); type: functional; conditions: read-out: Activity
[27] = Oral bioavailability in ICR mouse at 10 mg/kg measured upto 24 hrs by LC-MS/MS analysis; type: ADME, organism-based; conditions: in vivo
MDA-MB-468 = experiment: Antiproliferative activity against human MDA-MB-468 cells assessed as inhibition of cell growth incubated for 48 hrs by MTT assay; type: functional, cell-based; conditions: Homo sapiens, MDA-MB-468, 48 h
[28] = Clearance in ICR mouse at 1 mg/kg, iv measured upto 24 hrs by LC-MS/MS analysis; type: ADME, organism-based; conditions: in vivo

## Cc1nc2c(F)cc(-c3nc(Nc4nccc(Sc5cnc(N6CCC7(CC6)CO[C@@H](C)[C@H]7N)cn5)c4Cl)ncc3F)cc2n1C(C)C
EMT6 [1]
  Activity: Active
[2]
  Cmax: 634 ng/mL
EMT6 [3]
  inhibition in vivo at 20 mg/kg: 89%
[4]
  half-life: 2.11 h
[5]
  Cmax: 383 ng/mL
EMT6 [6]
  Activity: Active
EMT6 [7]
  Activity: Active
CDK12/Cyclin K
  IC50: 697 nM
[8]
  AUC at 24 h: 1200 ng·h/mL
EMT6 [9]
  Activity: Active
[10]
  AUC at 24 h: 5510 ng·h/mL
MDA-MB-231 [11]
  Activity: 9.46%
MDA-MB-231 [12]
  Activity: 5.24%
CDK6/cyclin D3
  IC50: 634 nM
[13]
  half-life: 2.94 h
CDK4/Cyclin D3
  IC50: 18.2 nM
[14]
  inhibition: Dde
MDA-MB-231 [15]
  Activity: 7.29%
[16]
  Vd: 2.53 L/kg
[17]
  IC50: 26.4 nM
[18]
  Activity: Non-Toxic
EMT6 [19]
  Activity: Active
[20]
  IC50: 540 nM
[21]
  IC50: > 20000 nM
MDA-MB-231 [22]
  Activity: 39.6%
MDA-MB-231 [23]
  IC50: 5570 nM
[24]
  Activity: Non-Toxic
EMT6 [25]
  inhibition in vivo at 40 mg/kg: 80%
MDA-MB-231 [26]
  viability at 1 µM: 86.3%
[27]
  bioavailability: 45.8%
MDA-MB-468
  IC50: 1760 nM
[28]
  clearance: 13.9 mL/min/kg

Reference: ChEMBL document CHEMBL5154884, “Discovery of a Novel Src Homology-2 Domain Containing Protein Tyrosine Phosphatase-2 (SHP2) and Cyclin-Dependent Kinase 4 (CDK4) Dual Inhibitor for the Treatment of Triple-Negative Breast Cancer” (J Med Chem, 2022)
